Results on 4 compounds are retold here after paper PMC3914206.

Holding throughout (assay type): binding
Common to all, as to design: KINOMEscan: ABL1(F317L)-phosphorylated / KINOMEscan: ABL1(H396P)-nonphosphorylated / KINOMEscan: ABL1(H396P)-phosphorylated / KINOMEscan: ABL1(M351T)-phosphorylated / KINOMEscan: ABL1(T315I)-phosphorylated / KINOMEscan: ABL1-nonphosphorylated / KINOMEscan: ABL1-phosphorylated / KINOMEscan: ACVR2A / KINOMEscan: ACVR2B / KINOMEscan: ADCK3 / KINOMEscan: ADCK4 / KINOMEscan: AKT1 / KINOMEscan: AKT3 / KINOMEscan: ALK / KINOMEscan: ARK5 / KINOMEscan: AURKA / KINOMEscan: AURKC / KINOMEscan: BIKE / KINOMEscan: BMPR1A / KINOMEscan: BMPR1B / KINOMEscan: BMX / KINOMEscan: BRK / KINOMEscan: BRSK1 / KINOMEscan: BRSK2 / KINOMEscan: CAMK1 / KINOMEscan: CAMK1D / KINOMEscan: CAMK1G / KINOMEscan: CAMK2A / KINOMEscan: CAMK2B / KINOMEscan: AAK1 / KINOMEscan: CAMK2D / KINOMEscan: CAMK2G / KINOMEscan: ABL1(F317I)-nonphosphorylated / KINOMEscan: ABL1(F317I)-phosphorylated / KINOMEscan: ABL1(F317L)-nonphosphorylated: unit: % Ctrl
Common to all, as to conditions: Compound Concentration 10 µM

Assay [1] concerns the target T1, panel of 442 kinases (Homo sapiens, UniProt P36888, K663Q).
T1 construct: purchased KINOMEscan
T1 sequence (P36888 27-993 K663Q): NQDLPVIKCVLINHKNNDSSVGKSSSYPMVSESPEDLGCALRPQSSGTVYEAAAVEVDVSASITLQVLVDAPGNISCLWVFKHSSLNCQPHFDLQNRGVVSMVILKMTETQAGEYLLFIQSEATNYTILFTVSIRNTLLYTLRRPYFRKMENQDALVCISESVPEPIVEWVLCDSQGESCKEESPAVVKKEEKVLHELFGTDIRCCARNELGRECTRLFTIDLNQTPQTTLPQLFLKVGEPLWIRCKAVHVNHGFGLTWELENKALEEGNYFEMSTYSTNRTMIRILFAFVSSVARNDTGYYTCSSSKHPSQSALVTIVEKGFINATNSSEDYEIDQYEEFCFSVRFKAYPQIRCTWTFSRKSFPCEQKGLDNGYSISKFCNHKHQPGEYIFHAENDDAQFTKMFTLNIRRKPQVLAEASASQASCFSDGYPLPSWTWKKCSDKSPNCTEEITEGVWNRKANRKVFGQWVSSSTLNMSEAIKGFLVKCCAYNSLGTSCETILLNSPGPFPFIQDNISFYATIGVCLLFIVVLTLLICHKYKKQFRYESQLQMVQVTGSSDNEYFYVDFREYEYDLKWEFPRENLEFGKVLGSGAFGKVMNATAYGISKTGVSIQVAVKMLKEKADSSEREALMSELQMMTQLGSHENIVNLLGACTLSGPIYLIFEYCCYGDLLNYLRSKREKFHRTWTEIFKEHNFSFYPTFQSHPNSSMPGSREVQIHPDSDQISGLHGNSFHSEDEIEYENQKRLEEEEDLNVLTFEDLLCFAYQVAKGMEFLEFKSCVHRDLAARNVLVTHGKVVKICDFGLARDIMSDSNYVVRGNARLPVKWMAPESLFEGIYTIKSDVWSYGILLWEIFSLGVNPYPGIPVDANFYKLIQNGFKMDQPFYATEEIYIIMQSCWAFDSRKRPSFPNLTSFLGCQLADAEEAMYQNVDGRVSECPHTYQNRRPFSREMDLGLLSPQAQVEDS
The text has this:
(§1) We assessed the selectivity of members of this scaffold using the KINOMEscan methodology across a near comprehensive panel of 442 kinases [[18,27]].

Assay [2] deals with T2, panel of 442 kinases (Homo sapiens, UniProt P00519, T315I).
T2 construct: purchased KINOMEscan
Source text: as §1

The target in assay [3] is T3, panel of 442 kinases (Homo sapiens, UniProt Q9BWU1).
T3 construct: purchased KINOMEscan
T3 sequence (Q9BWU1 whole entry): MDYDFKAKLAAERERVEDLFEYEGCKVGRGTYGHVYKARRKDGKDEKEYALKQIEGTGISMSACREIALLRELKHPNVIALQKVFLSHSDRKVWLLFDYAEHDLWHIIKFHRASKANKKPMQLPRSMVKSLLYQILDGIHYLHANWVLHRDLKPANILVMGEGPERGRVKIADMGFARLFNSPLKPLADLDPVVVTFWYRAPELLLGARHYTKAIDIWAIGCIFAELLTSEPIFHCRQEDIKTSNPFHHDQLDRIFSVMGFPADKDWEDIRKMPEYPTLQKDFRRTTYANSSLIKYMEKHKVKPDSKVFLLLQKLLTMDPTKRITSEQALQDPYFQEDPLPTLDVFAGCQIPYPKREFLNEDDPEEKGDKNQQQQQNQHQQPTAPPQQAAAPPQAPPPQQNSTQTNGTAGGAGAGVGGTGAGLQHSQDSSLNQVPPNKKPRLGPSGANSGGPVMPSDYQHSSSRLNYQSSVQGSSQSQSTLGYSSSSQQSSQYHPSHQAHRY
Source text: as §1

In the case of `COc1cc(C(=O)N2CCC(N3CCN(C)CC3)CC2)ccc1Nc1ncc2c(n1)N(C1CCCC1)c1ccccc1C(=O)N2C` [Compound 25, 11-cyclopentyl-2-((2-methoxy-4-(4-(4-methylpiperazin-1-yl)piperidine-1-carbonyl)phenyl)amino)-5-methyl-5H-benzo[e]pyrimido[5,4-b][1,4]diazepin-6(11H)-one], the “KINOMEscan: FLT3(K663Q)” value at panel of 442 kinases [1] came to 100. Besides, on panel of 442 kinases [2], the “KINOMEscan: ABL1(T315I)-nonphosphorylated” value is listed as 100 and the “KINOMEscan: ABL1(T315I)-phosphorylated” value worked out at 100. For the same compound, the “KINOMEscan: CDK11” value on panel of 442 kinases [3] is 87.

In the case of `COc1cc(C(=O)N2CCC(N3CCN(C)CC3)CC2)ccc1Nc1ncc2c(n1)N1CCc3cccc(c31)C(=O)N2C` [Compound 24], the “KINOMEscan: FLT3(K663Q)” value at panel of 442 kinases [1] turned out to be 100. Besides, the “KINOMEscan: ABL1(T315I)-phosphorylated” value on panel of 442 kinases [2] stood at 100. In addition, the “KINOMEscan: CDK11” value at panel of 442 kinases [3] stood at 96.

As for `COc1cc(C(=O)N2CCC(N3CCN(C)CC3)CC2)ccc1Nc1ncc2c(n1)N(C)c1ccccc1C(=O)N2C` [15 (LRRK2-IN-1)], the “KINOMEscan: FLT3(K663Q)” value on panel of 442 kinases [1] is recorded as 97. In addition, at panel of 442 kinases [2], the “KINOMEscan: ABL1(T315I)-nonphosphorylated” value was determined as 100 and the “KINOMEscan: ABL1(T315I)-phosphorylated” value came to 58. Moreover, the “KINOMEscan: CDK11” value at panel of 442 kinases [3] turned out to be 100.

With `CCOc1cc(C(=O)N2CCC(N3CCN(C)CC3)CC2)ccc1Nc1ncc2c(n1)N(C1CCCC1)c1ccccc1C(=O)N2C` [Compound 26], the “KINOMEscan: FLT3(K663Q)” value on panel of 442 kinases [1] is 100. Besides, at panel of 442 kinases [2], the “KINOMEscan: ABL1(T315I)-nonphosphorylated” value worked out at 95 and the “KINOMEscan: ABL1(T315I)-phosphorylated” value was determined as 92. In addition, the “KINOMEscan: CDK11” value on panel of 442 kinases [3] came out at 100.
